Laboratory results from patent US8420817B2, “Tricyclic N-heteroaryl-carboxamide derivatives, preparation and therapeutic use thereof” (Sanofi, priority 2007, dated 2013).

Row | Compound | melting point [°C]
1 | O=C(Nc1cnc2c(c1)nc1n2CCC1)c1cc2c(F)cccc2n1Cc1cccc(F)c1 | 265 to 266
2 | CS(=O)(=O)c1ccc2c(c1)cc(C(=O)Nc1cnc3c(c1)nc1n3CCC1)n2Cc1cccc(F)c1 [Compound 21, N-(7,8-Dihydro-6H-pyrrolo[2′,1′:2,3]imidazo[4,5-b]pyridin-3-yl)-5-methylsulfonyl-1-(3-fluorobenzyl)-1H-indole-2-carboxamide] | 275 to 277
3 | CC(C)(C)c1ccc2c(c1)cc(C(=O)Nc1cnc3c(c1)nc1n3CCC1)n2Cc1cccc(F)c1 [Compound 18, N-(7,8-Dihydro-6H-pyrrolo[2′,1′:2,3]imidazo[4,5-b]pyridin-3-yl)-5-tertbutyl-1-(3-fluorobenzyl)-1H-indole-2-carboxamide] | 234 to 236
4 | O=C(Nc1cnc2c(c1)nc1n2CCC1O)c1cc2ccc(C(F)(F)F)cc2n1Cc1cccc(F)c1 (single isomer, unassigned; (-)) [Compound 28, (−)-N-(6-Hydroxy-7,8-dihydro-6H-pyrrolo[2′,1′:2,3]imidazo[4,5-b]pyridin-3-yl)-6-trifluoromethyl-1-(3-fluorobenzyl)-1H-indole-2-carboxamide] | 269 to 271
5 | O=C(Nc1cnc2c(c1)nc1n2CCC1)c1cc2cc(F)cnc2n1Cc1cccc(F)c1 | 242 to 243
6 | O=C(Nc1cnc2c(c1)nc1n2CCC1)c1cc2cc(C(F)(F)F)cnc2n1Cc1cccc(F)c1 [Compound 24, N-(7,8-Dihydro-6H-pyrrolo[2′,1′:2,3]imidazo[4,5-b]pyridin-3-yl)-5-trifluoromethyl-1-(3-fluorobenzyl)-1H-pyrrolo[2,3-b]pyridine-2-carboxamide] | 247 to 249
7 | CSc1ccc2cc(C(=O)Nc3cnc4c(c3)nc3n4CCC3)n(Cc3cccc(F)c3)c2c1 [Compound 22, N-(7,8-Dihydro-6H-pyrrolo[2′,1′:2,3]imidazo[4,5-b]pyridin-3-yl)-6-methylthio-1-(3-fluorobenzyl)-1H-indole-2-carboxamide] | 222 to 223
8 | O=C(Nc1cnc2c(c1)nc1n2CCC1)c1cc2ccccc2n1Cc1cccc(F)c1 | 243 to 244
9 | O=C(Nc1cnc2c(c1)nc1n2CCC1)c1cc2ccc(C(F)(F)F)cc2n1Cc1cccc(F)c1 [Compound 7, N-(7,8-Dihydro-6H-pyrrolo[2′,1′:2,3]imidazo[4,5-b]pyridin-3-yl)-6-trifluoromethyl-1-(3-fluorobenzyl)-1H-indole-2-carboxamide] | 261 to 262
10 | O=C(Nc1cnc2c(c1)nc1n2CCCC1)c1cc2cc(C(F)(F)F)ccc2n1Cc1cccc(F)c1 [Compound 27, N-(6,7,8,9-Tetrahydroimidazo[1,2-a:5,4-b′]dipyridin-3-yl)-5-trifluoromethyl-1-(3-fluorobenzyl)-1H-indole-2-carboxamide] | 262 to 263
11 | O=C(Nc1cnc2c(c1)nc1n2CCC1)c1cc2cccc(F)c2n1Cc1cccc(F)c1 | 237 to 239
12 | CC1(C)CCn2c1nc1cc(NC(=O)c3cc4cc(C(F)(F)F)ccc4n3Cc3cccc(F)c3)cnc12 [Compound 31, N-(6,6-Dimethyl-7,8-dihydro-6H-pyrrolo[2′,1′:2,3]imidazo[4,5-b]pyridin-3-yl)-5-trifluoromethyl-1-(3-fluorobenzyl)-1H-indole-2-carboxamide] | 212 to 213
13 | CC(=O)OC1CCn2c1nc1cc(NC(=O)c3cc4cc(F)ccc4n3Cc3cccc(F)c3)cnc12 (racemic) [Compound 2, N-(6-Acetoxy-7,8-dihydro-6H-pyrrolo[2′,1′:2,3]imidazo[4,5-b]pyridin-3-yl)-5-fluoro-1-(3-fluorobenzyl)-1H-indole-2-carboxamide] | 139 to 141
14 | CC(=O)NC1CCn2c1nc1cc(NC(=O)c3cc4cc(F)ccc4n3Cc3cccc(F)c3)cnc12 (racemic) [Compound 35, N-(6-Acetylamino-7,8-dihydro-6H-pyrrolo[2′,1′:2,3]imidazo[4,5-b]pyridin-3-yl)-5-fluoro-1-(3-fluorobenzyl)-1H-indole-2-carboxamide] | 282 to 283
15 | O=C(Nc1cnc2c(c1)nc1n2CCC1)c1cc2ccc(C(F)(F)F)nc2n1Cc1cccc(F)c1 [Compound 23, N-(7,8-Dihydro-6H-pyrrolo[2′,1′:2,3]imidazo[4,5-b]pyridin-3-yl)-6-trifluoromethyl-1-(3-fluorobenzyl)-1H-pyrrolo[2,3-b]pyridine-2-carboxamide] | 272 to 273
16 | NC1CCn2c1nc1cc(NC(=O)c3cc4cc(F)ccc4n3Cc3cccc(F)c3)cnc12 (racemic) [Compound 34, N-(6-Amino-7,8-dihydro-6H-pyrrolo[2′,1′:2,3]imidazo[4,5-b]pyridin-3-yl)-5-fluoro-1-(3-fluorobenzyl)-1H-indole-2-carboxamide] | 218 to 220
17 | O=C(Nc1cnc2c(c1)nc1n2CCC1)c1cc2cc(Cl)ccc2n1Cc1cccc(F)c1 | 263 to 264

Row | Compound | melting point [°C]
18 | O=C(Nc1cnc2c(c1)nc1n2CCC1)c1cc2ccc(Cl)cc2n1Cc1cccc(F)c1 | 252 to 253
19 | CC(C)(C)c1ccc2cc(C(=O)Nc3cnc4c(c3)nc3n4CCC3)n(Cc3cccc(F)c3)c2c1 [Compound 19, N-(7,8-Dihydro-6H-pyrrolo[2′,1′:2,3]imidazo[4,5-b]pyridin-3-yl)-6-tertbutyl-1-(3-fluorobenzyl)-1H-indole-2-carboxamide] | 244 to 245
20 | CCc1ccc2cc(C(=O)Nc3cnc4c(c3)nc3n4CCC3)n(Cc3cccc(F)c3)c2c1 | 224 to 226
21 | O=C(Nc1cnc2c(c1)nc1n2CCC1)c1cc2ccc(F)cc2n1Cc1cccc(F)c1 | 235 to 236
22 | O=C(Nc1cnc2c(c1)nc1n2CCC1O)c1cc2cc(C(F)(F)F)cnc2n1Cc1cccc(F)c1 (single isomer, unassigned; (-)) [Compound 36, (−)-N-(6-Hydroxy-7,8-dihydro-6H-pyrrolo[2′,1′:2,3]imidazo[4,5-b]pyridin-3-yl)-5-trifluoromethyl-1-(3-fluorobenzyl)-1H-pyrrolo[2,3-b]pyridine-2-carboxamide] | 279 to 280
23 | O=C(Nc1cnc2c(c1)nc1n2CCC1c1ccccc1)c1cc2cc(C(F)(F)F)ccc2n1Cc1cccc(F)c1 (racemic) [Compound 30, N-(6-Phenyl-7,8-dihydro-6H-pyrrolo[2′,1′:2,3]imidazo[4,5-b]pyridin-3-yl)-5-trifluoromethyl-1-(3-fluorobenzyl)-1H-indole-2-carboxamide] | 129 to 130
24 | O=C(Nc1cnc2c(c1)nc1n2CCC1O)c1cc2cc(F)ccc2n1Cc1cccc(F)c1 (racemic) | 288 to 290
25 | Cc1ccc(C)c2c1cc(C(=O)Nc1cnc3c(c1)nc1n3CCC1)n2Cc1cccc(F)c1 | 286 to 288
26 | O=C(Nc1cnc2c(c1)nc1n2CCC1)c1cc2cc(C(F)(F)F)ccc2n1Cc1cccc(F)c1 [Compound 8, N-(7,8-Dihydro-6H-pyrrolo[2′,1′:2,3]imidazo[4,5-b]pyridin-3-yl)-5-trifluoromethyl-1-(3-fluorobenzyl)-1H-indole-2-carboxamide] | 223 to 225
27 | Cc1ccc2cc(C(=O)Nc3cnc4c(c3)nc3n4CCC3)n(Cc3cccc(F)c3)c2c1 | 182 to 183
28 | Cc1ccc2c(c1)cc(C(=O)Nc1cnc3c(c1)nc1n3CCC1)n2Cc1cccc(F)c1 | 237 to 238
29 | CC(C)c1ccc2cc(C(=O)Nc3cnc4c(c3)nc3n4CCC3)n(Cc3cccc(F)c3)c2c1 [Compound 17, N-(7,8-Dihydro-6H-pyrrolo[2′,1′:2,3]imidazo[4,5-b]pyridin-3-yl)-6-isopropyl-1-(3-fluorobenzyl)-1H-indole-2-carboxamide] | 275 to 278
30 | O=C(Nc1cnc2c(c1)nc1n2CCC1O)c1cc2cc(C(F)(F)F)ccc2n1Cc1cccc(F)c1 (stereo not drawn) [Compound 26, N-(6-Hydroxy-7,8-dihydro-6H-pyrrolo[2′,1′:2,3]imidazo[4,5-b]pyridin-3-yl)-5-trifluoromethyl-1-(3-fluorobenzyl)-1H-indole-2-carboxamide] | 267 to 268
31 | CN(C)C1CCn2c1nc1cc(NC(=O)c3cc4cc(C(F)(F)F)ccc4n3Cc3cccc(F)c3)cnc12 (single isomer, unassigned; (-)) [Compound 33, (−)-N-(6-Dimethylamino-7,8-dihydro-6H-pyrrolo[2′,1′:2,3]imidazo[4,5-b]pyridin-3-yl)-5-trifluoromethyl-1-(3-fluorobenzyl)-1H-indole-2-carboxamide] | 203 to 205
32 | Cc1cccc2c1cc(C(=O)Nc1cnc3c(c1)nc1n3CCC1)n2Cc1cccc(F)c1 | 303 to 304
33 | O=C(Nc1cnc2c(c1)nc1n2CCC1)c1cc2c(Cl)cccc2n1Cc1cccc(F)c1 | 302 to 303
